Results published in US6025471A, “Diazaspiro, azepino and azabicyclo therapeutic peptides” (priority 1998, dated 2000).
Where a SMILES comes first, the peptide text is derived from it. [ ]: non-standard residue; d: D form. dTrp(2-Me) = Cc1[nH]c2ccccc2c1C[C@@H](N)C(=O)O

Key:
[1] = tested on: growth hormone deficient rats; settings: cited from earlier work
human heart membranes = experiment: binding of peptides on human heart membranes (displacement of radiolabelled peptide); settings: FIG. 1
Excerpt: The binding abilities of certain peptides according to the invention compared to conventional peptides on human heart membranes are shown in FIG. 1. […]
Peptide A is in accordance with the invention, while peptides B-F are comparative. As shown in the figure, peptide A provided inhibition (i.e., displacement) of ^125 I-Tyr-Ala-His-D-Mrp-Ala-Trp-D-Phe-Lys-NH2 in a proportion of about 75%, whereas peptides B-F only provided about 5 to less than 35%. The greater binding affinities for the peptides of the invention illustrate that these peptides directly operate on specific receptors of heart tissue to achieve normalization of cardiac pressure.

inhibition (i.e., displacement) of 125I-Tyr-Ala-His-D-Mrp-Ala-Trp-D-Phe-Lys-NH2 (human heart membranes)	Compound	effect on worsening of cardiac dysfunction [1]
	Cc1[nH]c2ccccc2c1C[C@@H](NC(=O)[C@@H](N)Cc1cnc[nH]1)C(=O)N[C@@H](C)C(=O)N[C@@H](Cc1c[nH]c2ccccc12)C(=O)N[C@H](Cc1ccccc1)C(=O)N[C@@H](CCCCN)C(N)=O [Hexarelin, His-D-2-methyl-Trp-Ala-Trp-D-Phe-Lys-NH2] (H-H[dTrp(2-Me)]AW[dF]K-NH2)	reverse the worsening of cardiac dysfunction
about 75%	[S,S-Spiro(Pro-Leu )]-D-Mrp-D-Trp-Phe-Lys-NH2 [peptide A]	
